Results on one molecule are retold here after patent US20260224632A1, “USE OF A COMPOSITION COMPRISING A NEO-SYNTHESIZED EXTRACELLLAR MATRIX FOR THE TREATMENT OF CANCER, IN PARTICULAR FOR THE INHIBITION OF CANCER VIABILITY, MIGRATION, AND PROLIFERATION” (NOVADIP BIOSCIENCES, priority 2023, published 2026).

Series [1] has as its system adult human dermal fibroblasts (HDFa). In words: CCK-8 viability assay. It counts as cell-based. Conditions: HDFa (non-tumor); 72 h; NVDM2 7 and 15 mg per well; doxorubicin 0.1 uM. Here is the method:
(§1) Doxorubicin (0.1 uM) was used as a positive control treatment and gelatin beads alone were used for comparison with NVDM2 treatment. All treatments were carried out in 96-well plates in transwells. The compositions of the invention (NVDM2) were administered in two different doses: 7 mg and 15 mg per well. The viability was measured using CCK-8 viability bioassay at 72 hours after administration. […] Data represent the mean±s.d. values of % cell viability upon treatment normalized to the respective untreated sample. Blue line represents 100% of viability. Statistical significances between treated vs untreated samples at the respective time point were tested by ANOVA-I. *, p≤0.05; **; p≤0.01, ***; p≤0.001; ns, not significant. Blue dots: values of individual batches (biological replicates). Each chart represents the average value of the data from all batches tested. DS: lyophilized non irradiated powder of NVDM2; DP: lyophilized powder of NVDM2 after irradiation.
(§2) For this assay the Cell Counting Kit-8 Kit was used (Sigma-Aldrich). […] This coloured product (formazan) is measured using a spectrophotometer. […]
(§3) After O/N incubation, the medium was removed, and the cells were incubated for 72 h in the presence of the different doses of the test item. […] The plate was incubated at 37° C. for 2 hour and then absorbance at 450 nm was measured.
Background: Formazan colour is commonly taken as a measure of viable cells.

Series [2] has as its system human bone marrow mesenchymal stem cells (hBM-MSCs). Kind of series: CCK-8 viability assay. It counts as cell-based. The following applies: hBM-MSCs (non-tumor); 72 h; NVDM2 7 and 15 mg per well; doxorubicin 0.1 uM. Here is the method:
as §1, §2, §3

On to `COc1cccc2c1C(=O)c1c(O)c3c(c(O)c1C2=O)C[C@@](O)(C(=O)CO)C[C@@H]3O[C@H]1C[C@H](N)[C@H](O)[C@H](C)O1` [doxorubicin, Doxorubicin], for which the “% cell viability normalized to untreated (CCK-8)” value in series [1] and in series [2] was “significant inhibitory impact” each time.
